In experiment [1] the target is Serine/threonine-protein kinase PLK1 (Homo sapiens) (UniProt P53350). In words: Inhibition of human recombinant PLK1 at 40 nM related to control ULK1.
Experiment [2] addresses cAMP-dependent protein kinase catalytic subunit alpha (Homo sapiens) (UniProt P17612). Description: Inhibition of human recombinant PKACalpha at 40 nM in presence of ATP by radiometric assay relative to control.
Experiment [3] has as its target T1, Eukaryotic translation initiation factor 2-alpha kinase 3 (Homo sapiens) (UniProt Q9NZJ5).
T1 sequence (whole entry): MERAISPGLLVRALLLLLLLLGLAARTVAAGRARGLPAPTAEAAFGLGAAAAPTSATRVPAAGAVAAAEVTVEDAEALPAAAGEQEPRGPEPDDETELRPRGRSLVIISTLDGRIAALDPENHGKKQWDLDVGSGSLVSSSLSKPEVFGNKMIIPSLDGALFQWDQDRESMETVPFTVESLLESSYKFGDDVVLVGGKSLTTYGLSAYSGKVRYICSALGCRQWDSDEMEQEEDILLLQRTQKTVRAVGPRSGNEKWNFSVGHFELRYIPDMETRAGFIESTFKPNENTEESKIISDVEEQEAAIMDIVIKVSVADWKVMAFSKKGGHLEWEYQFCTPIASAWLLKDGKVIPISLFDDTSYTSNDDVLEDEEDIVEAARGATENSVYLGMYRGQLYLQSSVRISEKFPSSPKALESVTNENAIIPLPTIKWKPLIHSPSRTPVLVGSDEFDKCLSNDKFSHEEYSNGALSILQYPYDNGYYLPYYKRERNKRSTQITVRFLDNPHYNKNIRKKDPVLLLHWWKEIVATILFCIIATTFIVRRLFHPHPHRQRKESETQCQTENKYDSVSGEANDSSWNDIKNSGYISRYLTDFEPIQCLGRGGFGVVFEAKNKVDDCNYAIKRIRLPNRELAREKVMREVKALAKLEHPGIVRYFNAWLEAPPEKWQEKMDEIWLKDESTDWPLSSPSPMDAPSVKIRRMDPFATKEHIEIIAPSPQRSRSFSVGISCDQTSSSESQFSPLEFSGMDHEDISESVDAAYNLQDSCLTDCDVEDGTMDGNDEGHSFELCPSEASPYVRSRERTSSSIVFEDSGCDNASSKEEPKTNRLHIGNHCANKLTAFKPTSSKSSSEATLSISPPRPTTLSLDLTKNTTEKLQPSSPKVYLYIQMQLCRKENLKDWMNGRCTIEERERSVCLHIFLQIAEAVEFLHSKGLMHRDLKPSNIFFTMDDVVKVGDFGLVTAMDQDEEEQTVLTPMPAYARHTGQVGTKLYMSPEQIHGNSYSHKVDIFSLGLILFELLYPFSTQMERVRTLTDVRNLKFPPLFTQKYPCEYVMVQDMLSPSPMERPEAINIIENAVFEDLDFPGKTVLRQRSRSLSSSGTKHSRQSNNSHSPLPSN
Description: Inhibition of human recombinant PEK at 40 nM in presence of ATP by radiometric assay relative to control.

Experiment [4] has as its target Interferon-induced, double-stranded RNA-activated protein kinase (Homo sapiens) (UniProt P19525). In words: Inhibition of human recombinant PKR at 40 nM in presence of ATP by radiometric assay relative to control.
The target in experiment [5] is Epithelial discoidin domain-containing receptor 1 (Homo sapiens) (UniProt Q08345). Description: Inhibition of human recombinant DDR1 at 500 nM related to control ULK1.
Experiment [6] concerns the target Serine/threonine-protein kinase PAK 5 (Homo sapiens) (UniProt Q9P286). Description: Inhibition of human recombinant PAK5 at 500 nM related to control ULK1.
Experiment [7] deals with Serine/threonine-protein kinase MRCK alpha (Homo sapiens) (UniProt Q5VT25). Description: Inhibition of human recombinant MRCKa at 500 nM related to control ULK1.
Experiment [8] deals with T2, Ephrin type-B receptor 1 (Homo sapiens) (UniProt P54762).
T2 sequence (whole entry): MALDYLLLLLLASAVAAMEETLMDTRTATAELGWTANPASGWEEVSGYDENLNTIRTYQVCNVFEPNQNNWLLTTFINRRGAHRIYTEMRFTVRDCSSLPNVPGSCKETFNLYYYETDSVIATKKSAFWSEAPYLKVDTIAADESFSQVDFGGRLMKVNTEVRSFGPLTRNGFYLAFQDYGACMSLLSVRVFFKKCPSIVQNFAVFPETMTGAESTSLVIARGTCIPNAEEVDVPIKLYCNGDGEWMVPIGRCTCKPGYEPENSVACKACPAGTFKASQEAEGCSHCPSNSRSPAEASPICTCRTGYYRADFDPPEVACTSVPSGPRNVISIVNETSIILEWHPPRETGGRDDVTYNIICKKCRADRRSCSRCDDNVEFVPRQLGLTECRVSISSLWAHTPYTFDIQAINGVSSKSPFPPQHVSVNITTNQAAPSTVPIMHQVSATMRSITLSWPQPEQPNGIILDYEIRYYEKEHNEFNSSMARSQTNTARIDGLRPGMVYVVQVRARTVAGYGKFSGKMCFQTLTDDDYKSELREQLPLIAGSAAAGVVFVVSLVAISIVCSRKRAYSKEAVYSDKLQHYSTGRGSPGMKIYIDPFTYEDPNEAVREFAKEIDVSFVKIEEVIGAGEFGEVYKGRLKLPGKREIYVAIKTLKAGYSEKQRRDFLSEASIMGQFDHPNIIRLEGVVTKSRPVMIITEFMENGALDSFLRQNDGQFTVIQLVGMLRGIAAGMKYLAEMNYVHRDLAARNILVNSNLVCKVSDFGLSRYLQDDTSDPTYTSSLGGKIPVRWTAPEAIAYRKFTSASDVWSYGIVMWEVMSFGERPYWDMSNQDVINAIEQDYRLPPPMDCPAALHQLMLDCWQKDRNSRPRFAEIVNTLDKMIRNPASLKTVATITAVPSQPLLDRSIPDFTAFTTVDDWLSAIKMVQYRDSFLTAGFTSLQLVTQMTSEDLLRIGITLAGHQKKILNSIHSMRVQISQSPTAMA
In words: Inhibition of human recombinant EphB1 at 15 nM in presence of ATP by radiometric assay relative to control.

The target in experiment [9] is Hepatocyte growth factor receptor (Homo sapiens) (UniProt P08581). Description: Inhibition of human recombinant MET at 15 nM related to control ULK1.
In experiment [10] the target is Platelet-derived growth factor receptor beta (Homo sapiens) (UniProt P09619). Description: Inhibition of human recombinant PDGFRb at 15 nM related to control ULK1.
The target of experiment [11] is Serine/threonine-protein kinase MRCK alpha (Homo sapiens) (UniProt Q5VT25). In words: Inhibition of human recombinant MRCKa at 15 nM related to control ULK1.
Experiment [12] has as its target Tyrosine-protein kinase Lyn (Homo sapiens) (UniProt P07948). In words: Inhibition of human recombinant LYN at 15 nM related to control ULK1.
For experiment [13], the target named is Serine/threonine-protein kinase tousled-like 2 (Homo sapiens) (UniProt Q86UE8). In words: Inhibition of human recombinant TLK2 at 15 nM in presence of ATP by radiometric assay relative to control.

Broadly, the inhibition is the relative decrease from the control value, in per cent.

Sequence of Serine/threonine-protein kinase MRCK alpha (Homo sapiens) (Q5VT25 whole entry): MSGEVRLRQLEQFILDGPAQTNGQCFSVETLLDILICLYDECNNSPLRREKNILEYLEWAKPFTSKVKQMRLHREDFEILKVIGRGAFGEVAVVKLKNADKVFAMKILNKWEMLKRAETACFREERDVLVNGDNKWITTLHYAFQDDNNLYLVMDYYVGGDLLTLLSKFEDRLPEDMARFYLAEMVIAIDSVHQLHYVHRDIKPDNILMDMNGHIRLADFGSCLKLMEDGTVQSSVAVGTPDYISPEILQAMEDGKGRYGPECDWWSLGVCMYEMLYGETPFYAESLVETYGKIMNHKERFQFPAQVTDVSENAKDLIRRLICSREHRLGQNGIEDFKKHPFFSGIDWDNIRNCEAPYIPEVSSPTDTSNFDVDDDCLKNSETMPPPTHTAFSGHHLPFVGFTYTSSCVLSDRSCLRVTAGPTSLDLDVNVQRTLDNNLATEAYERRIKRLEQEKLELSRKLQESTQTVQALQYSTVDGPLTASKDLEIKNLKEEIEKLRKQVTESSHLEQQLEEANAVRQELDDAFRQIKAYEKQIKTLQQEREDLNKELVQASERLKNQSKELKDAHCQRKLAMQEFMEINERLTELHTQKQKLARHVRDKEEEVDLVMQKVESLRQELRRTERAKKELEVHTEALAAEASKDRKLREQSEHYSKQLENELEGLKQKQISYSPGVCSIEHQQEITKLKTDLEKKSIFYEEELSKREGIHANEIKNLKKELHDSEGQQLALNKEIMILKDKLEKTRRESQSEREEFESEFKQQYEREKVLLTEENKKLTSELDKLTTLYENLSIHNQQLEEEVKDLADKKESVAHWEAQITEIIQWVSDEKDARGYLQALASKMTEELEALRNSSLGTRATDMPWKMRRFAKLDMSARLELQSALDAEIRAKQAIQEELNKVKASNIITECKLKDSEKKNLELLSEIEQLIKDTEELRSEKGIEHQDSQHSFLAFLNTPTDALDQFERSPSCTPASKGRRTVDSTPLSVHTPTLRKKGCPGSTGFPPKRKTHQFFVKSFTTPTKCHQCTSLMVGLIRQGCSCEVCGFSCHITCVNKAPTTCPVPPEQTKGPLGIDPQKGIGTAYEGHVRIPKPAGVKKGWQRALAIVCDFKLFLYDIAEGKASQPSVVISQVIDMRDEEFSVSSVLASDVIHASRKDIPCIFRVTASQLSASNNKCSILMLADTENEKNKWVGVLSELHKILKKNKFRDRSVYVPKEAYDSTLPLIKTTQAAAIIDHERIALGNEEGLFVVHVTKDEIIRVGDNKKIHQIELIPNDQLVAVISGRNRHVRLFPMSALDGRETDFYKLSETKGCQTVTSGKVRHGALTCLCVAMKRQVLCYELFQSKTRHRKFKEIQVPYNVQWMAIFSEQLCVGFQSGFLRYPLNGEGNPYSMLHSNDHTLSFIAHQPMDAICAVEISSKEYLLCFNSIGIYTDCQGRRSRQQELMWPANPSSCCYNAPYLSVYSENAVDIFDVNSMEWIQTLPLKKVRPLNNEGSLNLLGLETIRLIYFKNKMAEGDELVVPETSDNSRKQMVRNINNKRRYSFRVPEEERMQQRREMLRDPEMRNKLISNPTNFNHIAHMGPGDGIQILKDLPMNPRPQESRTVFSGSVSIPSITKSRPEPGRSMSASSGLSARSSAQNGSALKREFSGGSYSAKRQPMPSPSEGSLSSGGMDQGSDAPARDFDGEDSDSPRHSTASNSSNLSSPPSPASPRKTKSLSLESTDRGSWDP
Sequence of Serine/threonine-protein kinase tousled-like 2 (Homo sapiens) (Q86UE8 whole entry, looked up): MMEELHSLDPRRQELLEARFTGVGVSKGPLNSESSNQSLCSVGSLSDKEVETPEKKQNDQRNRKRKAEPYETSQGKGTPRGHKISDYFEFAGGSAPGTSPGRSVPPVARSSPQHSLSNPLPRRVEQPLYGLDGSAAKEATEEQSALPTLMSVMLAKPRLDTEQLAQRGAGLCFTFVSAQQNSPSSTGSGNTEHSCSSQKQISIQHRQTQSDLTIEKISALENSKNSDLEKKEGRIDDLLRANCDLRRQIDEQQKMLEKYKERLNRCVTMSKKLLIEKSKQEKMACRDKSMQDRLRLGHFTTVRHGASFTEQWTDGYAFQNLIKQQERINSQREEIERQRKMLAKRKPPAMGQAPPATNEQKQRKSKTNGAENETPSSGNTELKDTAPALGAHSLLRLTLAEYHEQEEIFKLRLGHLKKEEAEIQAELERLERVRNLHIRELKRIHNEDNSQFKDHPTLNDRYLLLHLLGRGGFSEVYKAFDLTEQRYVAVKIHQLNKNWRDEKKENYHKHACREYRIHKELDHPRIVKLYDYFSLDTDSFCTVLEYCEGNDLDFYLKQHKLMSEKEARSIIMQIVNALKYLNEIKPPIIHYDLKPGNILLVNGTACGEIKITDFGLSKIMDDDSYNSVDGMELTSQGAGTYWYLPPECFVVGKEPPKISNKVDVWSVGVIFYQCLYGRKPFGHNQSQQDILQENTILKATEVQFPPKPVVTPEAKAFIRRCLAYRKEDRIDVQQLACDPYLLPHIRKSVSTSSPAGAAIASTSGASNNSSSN
Sequence of Tyrosine-protein kinase Lyn (Homo sapiens) (P07948 2-512 limits assumed): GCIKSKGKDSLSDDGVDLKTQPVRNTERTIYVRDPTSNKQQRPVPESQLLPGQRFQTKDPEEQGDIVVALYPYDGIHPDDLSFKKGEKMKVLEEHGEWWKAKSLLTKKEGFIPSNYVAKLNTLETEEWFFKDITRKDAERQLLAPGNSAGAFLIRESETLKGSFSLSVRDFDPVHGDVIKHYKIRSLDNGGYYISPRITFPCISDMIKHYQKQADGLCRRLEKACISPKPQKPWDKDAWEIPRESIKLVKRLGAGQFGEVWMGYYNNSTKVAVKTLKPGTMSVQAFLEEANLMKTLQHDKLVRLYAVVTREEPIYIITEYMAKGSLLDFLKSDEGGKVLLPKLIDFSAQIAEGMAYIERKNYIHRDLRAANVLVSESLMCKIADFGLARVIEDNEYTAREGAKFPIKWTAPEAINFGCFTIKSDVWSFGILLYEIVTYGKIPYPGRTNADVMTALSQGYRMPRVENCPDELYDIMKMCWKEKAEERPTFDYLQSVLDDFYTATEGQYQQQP
Sequence of Serine/threonine-protein kinase PLK1 (Homo sapiens) (P53350 whole entry): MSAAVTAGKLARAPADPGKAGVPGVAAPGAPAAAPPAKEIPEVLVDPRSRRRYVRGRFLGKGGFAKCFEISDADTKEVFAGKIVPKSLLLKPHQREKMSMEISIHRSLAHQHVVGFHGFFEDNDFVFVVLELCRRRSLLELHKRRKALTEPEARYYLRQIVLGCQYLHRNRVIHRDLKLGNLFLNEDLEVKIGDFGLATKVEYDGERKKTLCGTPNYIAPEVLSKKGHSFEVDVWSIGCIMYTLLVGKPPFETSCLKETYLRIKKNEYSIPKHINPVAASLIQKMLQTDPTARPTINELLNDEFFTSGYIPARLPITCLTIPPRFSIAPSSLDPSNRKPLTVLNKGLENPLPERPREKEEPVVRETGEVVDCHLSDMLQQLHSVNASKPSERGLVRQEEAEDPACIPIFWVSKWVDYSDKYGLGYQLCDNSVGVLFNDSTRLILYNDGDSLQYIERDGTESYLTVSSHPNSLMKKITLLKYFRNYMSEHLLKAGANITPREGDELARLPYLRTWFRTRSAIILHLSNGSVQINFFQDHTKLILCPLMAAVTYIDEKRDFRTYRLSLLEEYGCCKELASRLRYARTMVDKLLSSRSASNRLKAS
Sequence of Hepatocyte growth factor receptor (Homo sapiens) (P08581 whole entry, looked up): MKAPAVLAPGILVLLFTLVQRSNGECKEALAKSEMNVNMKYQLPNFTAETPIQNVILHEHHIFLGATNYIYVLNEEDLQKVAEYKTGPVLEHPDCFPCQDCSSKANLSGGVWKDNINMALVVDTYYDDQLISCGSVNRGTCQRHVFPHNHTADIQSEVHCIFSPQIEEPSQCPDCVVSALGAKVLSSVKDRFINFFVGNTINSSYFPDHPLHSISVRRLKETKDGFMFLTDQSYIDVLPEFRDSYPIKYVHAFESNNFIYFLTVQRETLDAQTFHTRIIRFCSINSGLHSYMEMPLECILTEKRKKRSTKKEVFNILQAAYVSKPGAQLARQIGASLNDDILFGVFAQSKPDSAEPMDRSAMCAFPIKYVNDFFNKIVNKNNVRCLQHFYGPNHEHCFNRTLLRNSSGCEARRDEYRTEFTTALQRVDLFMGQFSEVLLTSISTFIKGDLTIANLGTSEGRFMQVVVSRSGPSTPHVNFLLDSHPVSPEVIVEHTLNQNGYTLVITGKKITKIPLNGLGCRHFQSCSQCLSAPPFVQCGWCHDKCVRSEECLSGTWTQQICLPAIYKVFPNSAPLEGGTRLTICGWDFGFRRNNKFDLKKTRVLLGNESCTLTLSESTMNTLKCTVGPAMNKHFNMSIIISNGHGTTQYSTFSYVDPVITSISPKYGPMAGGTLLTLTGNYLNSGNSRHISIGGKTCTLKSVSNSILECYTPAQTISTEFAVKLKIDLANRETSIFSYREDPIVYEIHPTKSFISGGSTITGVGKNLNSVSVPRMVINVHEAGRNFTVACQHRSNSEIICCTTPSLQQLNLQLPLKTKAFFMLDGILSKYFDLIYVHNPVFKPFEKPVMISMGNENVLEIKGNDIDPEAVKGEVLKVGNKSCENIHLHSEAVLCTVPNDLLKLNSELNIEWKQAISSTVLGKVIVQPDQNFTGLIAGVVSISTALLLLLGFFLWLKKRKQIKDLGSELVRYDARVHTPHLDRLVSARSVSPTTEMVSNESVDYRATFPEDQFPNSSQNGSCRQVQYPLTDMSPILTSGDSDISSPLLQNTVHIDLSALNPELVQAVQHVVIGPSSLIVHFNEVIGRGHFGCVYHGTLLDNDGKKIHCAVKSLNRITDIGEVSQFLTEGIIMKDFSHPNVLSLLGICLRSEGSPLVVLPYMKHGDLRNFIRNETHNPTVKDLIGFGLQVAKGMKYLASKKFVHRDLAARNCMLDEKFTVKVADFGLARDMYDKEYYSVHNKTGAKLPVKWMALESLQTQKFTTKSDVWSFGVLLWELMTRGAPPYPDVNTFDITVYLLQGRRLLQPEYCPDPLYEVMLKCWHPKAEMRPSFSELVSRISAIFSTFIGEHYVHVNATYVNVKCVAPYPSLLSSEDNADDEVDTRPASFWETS

For the molecule `O=C(N[C@@H](C1CC1)C(F)(F)F)c1cc(-c2cnn3cc(-c4ccc(F)cc4)cnc23)cs1`, the fold change (FC) in experiment [1] stood at 0. In addition, the inhibition in experiment [2], in [3] and in experiment [4] was 0% in each case.

Regarding `CNC(=O)c1ccccc1Oc1nc(Nc2cc(OC)c(OC)c(OC)c2)ncc1Br`, the fold change (FC) in [5] came out at 0.64; in [6], 0.07; in [7], 0.09.

For the molecule `CC(C)[C@H](NC(=O)c1cc(-c2cnn3cc(-c4ccc(OCCN5CCCCC5)cc4)cnc23)cs1)C(F)(F)F`, the values for the inhibition in experiment [8] and in experiment [13] were 12% and 3%, respectively. Besides, the fold change (FC) came out at 0 in experiment [9], 0 in [10], 0.13 in [11] and 0.22 in experiment [12].

The values above are taken from ChEMBL document CHEMBL5653631, “A Potent and Selective ULK1 Inhibitor Suppresses Autophagy and Sensitizes Cancer Cells to Nutrient Stress” (iScience, 2018).
